In patent US10144709B2, “Piperidine compounds, pharmaceutical composition comprising the same and its use” (SK BIOPHARMACEUTICALS CO., LTD., priority 2008, dated 2018):
Counter-ions that a name gives are not always drawn.

Test system: ICR CD strain male mice
Assay: Gastric emptying enhancing activity (phenol red meal)
Type: in vivo
Conditions: Mus musculus, ip, 0.25 h, 3.0 mg/kg i.p., gastric emptying at 15 min after test meal, increase vs vehicle
Procedure: ICR CD strain male mice (body weight, 25˜30 g; 8 mice per one group) were fasted for 24 h but allowed free access to water until 3 hours before the test.
Compounds to be tested for promoting GI motility were injected intraperitoneally or given orally at 30 min or 60 min prior to phenol red meal administration. Fifteen (15) min after administration of a test meal (0.5% Phenol red in 1.5% methylcellulose solution), mice were sacrificed and the stomach (pylorus˜cardia) was removed and collected to vial. The stomach was homogenized with its contents in 0.1N NaOH and the mixture was centrifuged (700*g) for 20 min. 2.5 mL of the supernatant was added to 0.25 mL of trichloroacetic acid solution (20% w/v) to precipitate proteins. After centrifuging (2600*g) for 20 min, 0.5 mL of the supernatant was added to 0.25 mL of 1N NaOH. The mixture was homogenized and its absorbance (Abs) was read at 560 nm.
In each experiment, one group was sacrificed just after the administration of the test meal and was considered as a standard (0% emptying). The gastric emptying (GE) at the 15 min period was calculated according to the following formula. GE (%)=(1−Abstest/Absstandard)×100 Increase (%)=(GE %test−GE %vehicle)/GE %vehicle*100

| Structure (SMILES) | change in vivo at 3 mg/kg [%] |
| --- | --- |
| COc1cc(N)c(Cl)cc1C(=O)NCC1CCN(CC(O)c2ccc(F)cc2)CC1 (stereo not drawn) [Example 2, 4-amino-5-chloro-N-[[1-[2-(4-fluorophenyl)-2-hydroxyethyl]piperidin-4-yl]methyl]-2-methoxybenzamide; hydrochloride] | 42.6 |
| COc1cc(N)c(Cl)cc1C(=O)NCC1CCN(CC(O)c2ccc(C)cc2)CC1 (stereo not drawn) [Example 3, 4-amino-5-chloro-N-[[1-[2-hydroxy-2-(4-methylphenyl)ethyl]piperidin-4-yl]methyl]-2-methoxybenzamide; hydrochloride] | 71.1 |
| COc1ccc(C(O)CN2CCC(CNC(=O)c3cc(Cl)c(N)cc3OC)CC2)cc1 (stereo not drawn) [Example 4, 4-amino-5-chloro-N-[[1-[2-hydroxy-2-(4-methoxyphenyl)ethyl]piperidin-4-yl]methyl]-2-methoxybenzamide; hydrochloride] | 74.1 |
| COc1cc(N)c(Cl)cc1C(=O)NCC1CCN(CC(O)c2ccc(C#N)cc2)CC1 (stereo not drawn) [Example 5, 4-amino-5-chloro-N-[[1-[2-(4-cyanophenyl)-2-hydroxyethyl]piperidin-4-yl]methyl]-2-methoxybenzamide; hydrochloride] | 76.1 |
| COc1cc(N)c(Cl)cc1C(=O)NCC1CCN(CC(O)c2ccccc2OC)CC1 (stereo not drawn) [Example 8, 4-amino-5-chloro-N-[[1-[2-hydroxy-2-(2-methoxyphenyl)ethyl]piperidin-4-yl]methyl]-2-methoxybenzamide; hydrochloride] | 51.6 |
| COc1cccc(C(O)CN2CCC(CNC(=O)c3cc(Cl)c(N)cc3OC)CC2)c1 (stereo not drawn) [Example 9, 4-amino-5-chloro-N-[[1-[2-hydroxy-2-(3-methoxyphenyl)ethyl]piperidin-4-yl]methyl]-2-methoxybenzamide; hydrochloride] | 55.8 |
| COc1cc(N)c(Cl)cc1C(=O)NCC1CCN(CC(O)c2ccccc2Cl)CC1 (stereo not drawn) [Example 13, 4-amino-5-chloro-N-[[1-[2-(2-chlorophenyl)-2-hydroxyethyl]piperidin-4-yl]methyl]-2-methoxybenzamide; hydrochloride] | 14 |
| COc1ccc(OC)c(C(O)CN2CCC(CNC(=O)c3cc(Cl)c(N)cc3OC)CC2)c1 (stereo not drawn) [Example 15, 4-amino-5-chloro-N-[[1-[2-(2,5-dimethoxyphenyl)-2-hydroxyethyl]piperidin-4-yl]methyl]-2-methoxybenzamide; hydrochloride] | 78.7 |
| COc1cc(N)c(Cl)cc1C(=O)NCC1CCN(CC(O)c2ccc(OC(F)F)cc2)CC1 (stereo not drawn) [Example 16, 4-amino-5-chloro-N-[[1-[2-[4-(difluoromethoxy)phenyl]-2-hydroxyethyl]piperidin-4-yl]methyl]-2-methoxybenzamide; hydrochloride] | 53.6 |
| COc1cc(N)c(Cl)cc1C(=O)NCC1CCN(CC(O)c2ccc(F)c(F)c2)CC1 (stereo not drawn) [Example 17, 4-amino-5-chloro-N-[[1-[2-(3,4-difluorophenyl)-2-hydroxyethyl]piperidin-4-yl]methyl]-2-methoxybenzamide; hydrochloride] | 22.1 |
| COc1cc(N)c(Cl)cc1C(=O)NCC1CCN(CC(NC(=O)O)c2ccc(C)cc2)CC1 (stereo not drawn) [Example 24, [2-[4-[[(4-amino-5-chloro-2-methoxybenzoyl)amino]methyl]piperidin-1-yl]-1-(4-methylphenyl)ethyl]carbamate; hydrochloride] | 71.1 |
| COc1cc(N)c(Cl)cc1C(=O)NCC1CCN(CC(NC(=O)O)c2ccccc2Cl)CC1 (stereo not drawn) [Example 29, [2-[4-[[(4-amino-5-chloro-2-methoxybenzoyl)amino]methyl]piperidin-1-yl]-1-(2-chlorophenyl)ethyl]carbamate; hydrochloride] | 61.3 |
| COc1cc(N)c(Cl)cc1C(=O)NCC1CCN(CC(NC(=O)O)c2ccc(OC(F)F)cc2)CC1 (stereo not drawn) [Example 32, [2-[4-[[(4-amino-5-chloro-2-methoxybenzoyl)amino]methyl]piperidin-1-yl]-1-[4-(difluoromethoxy)phenyl]ethyl]carbamate; hydrochloride] | 40 |
| COc1cc(N)c(Cl)cc1C(=O)NCC1CCN(CCC(O)c2ccccc2)CC1 (stereo not drawn) [Example 36, 4-amino-5-chloro-N-[[1-(3-hydroxy-3-phenylpropyl)piperidin-4-yl]methyl]-2-methoxybenzamide; hydrochloride] | 55.2 |
| COc1cc(N)c(Cl)cc1C(=O)NCC1CCN(CCC(O)c2ccc(F)cc2)CC1 (stereo not drawn) [Example 37, 4-amino-5-chloro-N-[[1-[3-(4-fluorophenyl)-3-hydroxypropyl]piperidin-4-yl]methyl]-2-methoxybenzamide; hydrochloride] | 70.7 |
| COc1cc(N)c(Cl)cc1C(=O)NCC1CCN(CCC(O)c2ccc(Cl)cc2)CC1 (stereo not drawn) [Example 38, 4-amino-5-chloro-N-[[1-[3-(4-chlorophenyl)-3-hydroxypropyl]piperidin-4-yl]methyl]-2-methoxybenzamide; hydrochloride] | 49.1 |
| COc1cc(N)c(Cl)cc1C(=O)NCC1CCN(CCC(O)c2ccc(C)cc2)CC1 (stereo not drawn) [Example 39, 4-amino-5-chloro-N-[[1-[3-hydroxy-3-(4-methylphenyl)propyl]piperidin-4-yl]methyl]-2-methoxybenzamide; hydrochloride] | 40 |
| COc1ccc(C(O)CCN2CCC(CNC(=O)c3cc(Cl)c(N)cc3OC)CC2)cc1 (stereo not drawn) [Example 40, 4-amino-5-chloro-N-[[1-[3-hydroxy-3-(4-methoxyphenyl)propyl]piperidin-4-yl]methyl]-2-methoxybenzamide; hydrochloride] | 51.6 |
| COc1cc(N)c(Cl)cc1C(=O)NCC1CCN(CCC(O)c2ccccc2Cl)CC1 (stereo not drawn) [Example 41, 4-amino-5-chloro-N-[[1-[3-(2-chlorophenyl)-3-hydroxypropyl]piperidin-4-yl]methyl]-2-methoxybenzamide; hydrochloride] | 24.3 |
| COc1cc(N)c(Cl)cc1C(=O)NCC1CCN(CCC(O)c2cccc(Cl)c2)CC1 (stereo not drawn) [Example 42, 4-amino-5-chloro-N-[[1-[3-(3-chlorophenyl)-3-hydroxypropyl]piperidin-4-yl]methyl]-2-methoxybenzamide; hydrochloride] | 42.7 |
| COc1cc(N)c(Cl)cc1C(=O)NCC1CCN(CCC(O)c2ccccc2F)CC1 (stereo not drawn) [Example 43, 4-amino-5-chloro-N-[[1-[3-(2-fluorophenyl)-3-hydroxypropyl]piperidin-4-yl]methyl]-2-methoxybenzamide; hydrochloride] | 46.1 |
| COc1cc(N)c(Cl)cc1C(=O)NCC1CCN(CCC(O)c2cccc(Cl)c2Cl)CC1 (stereo not drawn) [Example 45, 4-amino-5-chloro-N-[[1-[3-(2,3-dichlorophenyl)-3-hydroxypropyl]piperidin-4-yl]methyl]-2-methoxybenzamide; hydrochloride] | 51.4 |
| COc1cc(N)c(Cl)cc1C(=O)NCC1CCN(CCC(O)c2ccc(Cl)cc2Cl)CC1 (stereo not drawn) [Example 46, 4-amino-5-chloro-N-[[1-[3-(2,4-dichlorophenyl)-3-hydroxypropyl]piperidin-4-yl]methyl]-2-methoxybenzamide; hydrochloride] | 45.9 |
| COc1cc(N)c(Cl)cc1C(=O)NCC1CCN(CCC(O)c2ccc(Cl)c(Cl)c2)CC1 (stereo not drawn) [Example 47, 4-amino-5-chloro-N-[[1-[3-(3,4-dichlorophenyl)-3-hydroxypropyl]piperidin-4-yl]methyl]-2-methoxybenzamide; hydrochloride] | 25.9 |
| COc1cc(N)c(Cl)cc1C(=O)NCC1CCN(CCC(O)c2ccc(C(C)C)cc2)CC1 (stereo not drawn) [Example 48, 4-amino-5-chloro-N-[[1-[3-(4-isopropylphenyl)-3-hydroxypropyl]piperidin-4-yl]methyl]-2-methoxybenzamide; hydrochloride] | 3.5 |
| COc1cccc(C(O)CCN2CCC(CNC(=O)c3cc(Cl)c(N)cc3OC)CC2)c1 (stereo not drawn) [Example 49, 4-amino-5-chloro-N-[[1-[3-(3-methoxyphenyl)-3-hydroxypropyl]piperidin-4-yl]methyl]-2-methoxybenzamide; hydrochloride] | 17.8 |
| COc1cc(N)c(Cl)cc1C(=O)NCC1CCN(CCC(O)c2cccs2)CC1 (stereo not drawn) [Example 50, 4-amino-5-chloro-N-[[1-(3-hydroxy-3-thiophen-2-ylpropyl)piperidin-4-yl]methyl]-2-methoxybenzamide; hydrochloride] | 3.9 |
| COc1cc(N)c(Cl)cc1C(=O)NCC1CCN(CCC(O)Cc2ccc(F)cc2)CC1 (stereo not drawn) [Example 51, 4-amino-5-chloro-N-[[1-[4-(4-fluorophenyl)-3-hydroxybutyl]piperidin-4-yl]methyl]-2-methoxybenzamide; hydrochloride] | 122 |
| COc1cc(N)c(Cl)cc1C(=O)NCC1CCN(CCC(O)CCc2ccc(F)cc2)CC1 (stereo not drawn) [Example 52, 4-amino-5-chloro-N-[[1-[5-(4-fluorophenyl)-3-hydroxypentyl]piperidin-4-yl]methyl]-2-methoxybenzamide; hydrochloride] | 131 |
| COc1cc(N)c(Cl)cc1C(=O)NCC1CCN(CCC(NC(=O)O)c2ccccc2)CC1 (stereo not drawn) [Example 53, [3-[4-[[(4-amino-5-chloro-2-methoxybenzoyl)amino]methyl]piperidin-1-yl]-1-phenylpropyl]carbamate; hydrochloride] | 28.4 |
